Test results reported in PubChem BioAssay AID2060486 (Molecular Pharmacology Branch, DTP, NCI, 2025).
pIC50: −log10 of the molar value. “And” between values parts separate entries of the source, which are not always exact repeats. Equal values may be shown once.

Test system: IGROV1 complex spheroids (HUVEC, MSC), viability % test/control
Assay: Anticancer human tumor IGROV1 cell line growth inhibition [GQUAD];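 further: spheroids exposed to compounds for 7 days before readout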
Conditions: for viability, T/C: stronger effect = lower value; for IC50: compound alone
Description: DNA G-quadruplex Stabilizer Agents in Combinations in Complex Spheroids
A high-throughput screen of multi-cell type tumor spheroids was designed to identify active combinations of DNA G-quadruplex stabilizer agents and targeted small molecules. Complex spheroids include a stromal component modeled by human endothelial cells (HUVEC) and fibroblasts modeled by human mesenchymal stem cells (MSCs). The concentration ranges selected for each drug and investigational agent were based upon clinically achievable concentrations if the clinical Cmax of the agent was known.
Compounds. The drugs and investigational agents: pidnarulex (CX-5461; NSC782164), APTO-253 (NSC789042), BRACO-19 (NSC847499), peposertib (NSC802822), ceralasertib (NSC780249), elimusertib (NSC800525), camonsertib (NSC841442), AZD-1390 (NSC803789), olaparib (NSC753686), talazoparib (NSC767125), ART-558 (NSC835418), sotorasib (NSC818433), MRTX-1133 (NSC836407), SN-38 (NSC673596), topotecan (NSC609699), etoposide (NSC141540), doxorubicin (NSC123127), gemcitabine (NSC613327), 5-fluorouracil (NSC19893), paclitaxel (NSC125973), vemurafenib (NSC761431), panobinostat (NSC761190), R-306465 (JNJ-16241199; NSC773264), adavosertib (NSC754352), TP-3654 (NSC805149), carboplatin (NSC241240), KSQ-4279 (NSC840948), and staurosporine (NSC755774) were obtained from the National Cancer Institute (NCI) Developmental Therapeutics Program Chemical Repository (34). The FDA-approved anticancer drug set is available from the NCI Developmental Therapeutics Program. […] The stock solutions were prepared in dimethyl sulfoxide (DMSO, Sigma-Aldrich, St. Louis, MO, cat. D2650) at 800-fold the tested concentration and stored at -70 degrees C prior to their use. All drugs and investigational agents were tested over a range starting from a high concentration at or near the clinical Cmax and decreasing in half-log increments. If the clinical Cmax for an agent had not been determined, the highest concentration tested was 10 microM.
2.3 Cell Culture. All cells were maintained in an incubator at 37 degrees C and 5% CO2 with 95% humidity. The PDC lines were cultured according to standard operating procedures established by the NCI PDMR. All PDCs were thawed and cultured in Matrigel-coated flasks prepared with a working solution of 1X Ham's F-12 nutrient mix, without supplementation (Invitrogen, cat. 11765054), 100 U/mL penicillin-streptomycin (Invitrogen, cat. 15140122), and 2.5% Matrigel (Corning Inc., cat. 354248) for the first three passages. The 857933-349-R-J2-PDC line was cultured in 6C/Colon 1B media, which includes advanced DMEM/F-12 (Thermo Fisher Scientific, cat. 12634028), 10 mM HEPES (Thermo Fisher Scientific, cat. 15630080), 1X GlutaMAX supplement (Thermo Fisher Scientific, cat. 35050061), 0.1 mg/mL primocin (InvivoGen, cat. ant-pm-2), 10% defined fetal bovine serum, heat inactivated (HyClone Laboratories Inc., cat. SH30070.03HI), 50% L-WRN conditioned media (ATCC, cat. CRL-3276), 1.25 mM N-Acetyl-L-cysteine (Sigma-Aldrich, cat. A9165), 10 mM nicotinamide (Sigma-Aldrich, cat. N0636), 1X B-27 supplement (Thermo Fisher Scientific, cat. 17504044), 1X N-2 supplement (Thermo Fisher Scientific, cat. 17502048), 10 microM Y-27632 dihydrochloride (Tocris Bioscience, cat. 1254), and 50 ng/mL human EGF recombinant protein (Thermo Fisher Scientific, cat. PHG0311). The 485176-168-R4-J1-PDC line was cultured in Panc media, which includes all 6C/Colon 1B media components plus 100 ng/mL human FGF-10 (Thermo Fisher Scientific, cat. 100-26), 500 nM SB-431542 (Selleckchem, cat. S1067), and gastrin (Tocris, cat. 3006).
[…]

[1] = curve of first compound, second compound 0.0316 µM
[2] = curve of first compound, second compound 0.1 µM
[3] = curve of first compound, second compound 0.316 µM
[4] = curve of first compound, second compound 1 µM
[5] = curve of first compound, second compound 3.16 µM
[6] = curve of first compound, second compound 10 µM
[7] = second compound 0.0316 µM, first compound 0.0316 µM
[8] = second compound 0.0316 µM, first compound 0.1 µM
[9] = second compound 0.0316 µM, first compound 0.316 µM
[10] = second compound 0.0316 µM, first compound 1 µM
[11] = second compound 0.0316 µM, first compound 3.16 µM
[12] = second compound 0.0316 µM, first compound 10 µM
[13] = second compound 0.1 µM, first compound 0.0316 µM
[14] = second compound 0.1 µM, first compound 0.1 µM
[15] = second compound 0.1 µM, first compound 0.316 µM
[16] = second compound 0.1 µM, first compound 1 µM
[17] = second compound 0.1 µM, first compound 3.16 µM
[18] = second compound 0.1 µM, first compound 10 µM
[19] = second compound 0.316 µM, first compound 0.0316 µM
[20] = second compound 0.316 µM, first compound 0.1 µM
[21] = second compound 0.316 µM, first compound 0.316 µM
[22] = second compound 0.316 µM, first compound 1 µM
[23] = second compound 0.316 µM, first compound 3.16 µM
[24] = second compound 0.316 µM, first compound 10 µM
[25] = second compound 1 µM, first compound 0.0316 µM
[26] = second compound 1 µM, first compound 0.1 µM
[27] = second compound 1 µM, first compound 0.316 µM
[28] = second compound 1 µM, first compound 1 µM
[29] = second compound 1 µM, first compound 3.16 µM
[30] = second compound 1 µM, first compound 10 µM
[31] = second compound 3.16 µM, first compound 0.0316 µM
[32] = second compound 3.16 µM, first compound 0.1 µM
[33] = second compound 3.16 µM, first compound 0.316 µM
[34] = second compound 3.16 µM, first compound 1 µM
[35] = second compound 3.16 µM, first compound 3.16 µM
[36] = second compound 3.16 µM, first compound 10 µM
[37] = second compound 10 µM, first compound 0.0316 µM
[38] = second compound 10 µM, first compound 0.1 µM
[39] = second compound 10 µM, first compound 0.316 µM
[40] = second compound 10 µM, first compound 1 µM
[41] = second compound 10 µM, first compound 3.16 µM
[42] = second compound 10 µM, first compound 10 µM

Which results are given for COc1ncnc(C2CC2)c1-c1ncc2cnn(Cc3ccc(-c4nc(C(F)(F)F)cn4C(C)C)cc3)c2n1?
viability, T/C (compound 0.0316 µM): 99.3% and 85% and 100%; viability, T/C (compound 0.1 µM): 82.7% and 93.3% and 87%; viability, T/C (compound 0.316 µM): 94.9% and 98.1% and 93%; viability, T/C (compound 1 µM): 90.1% and 91.9% and 96.5%; viability, T/C (compound 3.16 µM): 78.2% and 69.5% and 96.9%; viability, T/C (compound 10 µM): 94.5% and 82.1% and 77.6%; pIC50 (curve of compound): < 5.00

What does the source list for Cc1[nH]c2ccc(F)cc2c1-c1nc2c3cccnc3c3ncccc3c2[nH]1?
viability, T/C (compound 0.1 µM): 101% [middle of 12 runs]; viability, T/C (compound 1 µM): 4.97% [middle of 12 runs]; viability, T/C (compound 3.16 µM): 4.72% [middle of 12 runs]; viability, T/C (compound 10 µM): 4.29% [middle of 12 runs]; IC50 (run of 03/18/2024): 561 nM [middle of 8 runs]; IC50 (run of 03/26/2024): 531 nM [middle of 4 runs]

CC1COCCN1c1cc(-c2ccnn2C)c2ccnc(-c3ccn[nH]3)c2n1 (configuration not stated) + CN(C)c1ccc(Nc2c3ccc(NC(=O)CCN4CCCC4)cc3nc3cc(NC(=O)CCN4CCCC4)ccc23)cc1 was tested. Which pIC50 [1] did it give?
The pIC50 was 7.29.

What about the pIC50 [2] of the same compound?
The pIC50 was 7.30.

What about the pIC50 [3] of the same compound?
Its pIC50 is 7.43.

What about the pIC50 [4] of the same compound?
Its pIC50 is 7.37.

What about the pIC50 [5] of the same compound?
Its pIC50 is greater than 7.50.

And the pIC50 [6]?
The pIC50 was greater than 7.50.

And the viability, T/C [7]?
The viability, T/C was 66.2%.

And the viability, T/C [8]?
The viability, T/C was 26.3%.

And the viability, T/C [9]?
Its viability, T/C is 12.3%.

What about the viability, T/C [10] of the same compound?
Its viability, T/C is 7.64%.

What about the viability, T/C [11] of the same compound?
The viability, T/C was 4.82%.

And the viability, T/C [12]?
Its viability, T/C is 3.77%.

And the viability, T/C [13]?
Its viability, T/C is 66.3%.

And the viability, T/C [14]?
Its viability, T/C is 24.2%.

What about the viability, T/C [15] of the same compound?
Its viability, T/C is 11.8%.

What about the viability, T/C [16] of the same compound?
The viability, T/C was 7.54%.

And the viability, T/C [17]?
The viability, T/C was 5.16%.

And the viability, T/C [18]?
The viability, T/C was 3.61%.

What about the viability, T/C [19] of the same compound?
The viability, T/C was 54.9%.

And the viability, T/C [20]?
Its viability, T/C is 21.5%.

And the viability, T/C [21]?
Its viability, T/C is 9.35%.

And the viability, T/C [22]?
Its viability, T/C is 6.62%.

What about the viability, T/C [23] of the same compound?
Its viability, T/C is 5.67%.

And the viability, T/C [24]?
The viability, T/C was 3.51%.

And the viability, T/C [25]?
The viability, T/C was 57.8%.

And the viability, T/C [26]?
Its viability, T/C is 28.5%.

And the viability, T/C [27]?
The viability, T/C was 11.7%.

And the viability, T/C [28]?
Its viability, T/C is 7.28%.

What about the viability, T/C [29] of the same compound?
Its viability, T/C is 5.79%.

And the viability, T/C [30]?
Its viability, T/C is 3.85%.

And the viability, T/C [31]?
The viability, T/C was 44%.

What about the viability, T/C [32] of the same compound?
The viability, T/C was 18.2%.

What about the viability, T/C [33] of the same compound?
Its viability, T/C is 11.2%.

What about the viability, T/C [34] of the same compound?
Its viability, T/C is 7.75%.

And the viability, T/C [35]?
Its viability, T/C is 4.98%.

What about the viability, T/C [36] of the same compound?
Its viability, T/C is 3.18%.

What about the viability, T/C [37] of the same compound?
Its viability, T/C is 20.6%.

And the viability, T/C [38]?
The viability, T/C was 10.5%.

What about the viability, T/C [39] of the same compound?
Its viability, T/C is 9.22%.

What about the viability, T/C [40] of the same compound?
Its viability, T/C is 5.87%.

And the viability, T/C [41]?
The viability, T/C was 5.04%.

And the viability, T/C [42]?
The viability, T/C was 3.72%.

What does the source list for COc1ccc([C@@H](O)c2cc(-c3ncnc4cc(N5CCOCC5)ccc34)c(F)cc2Cl)nn1 + CN(C)c1ccc(Nc2c3ccc(NC(=O)CCN4CCCC4)cc3nc3cc(NC(=O)CCN4CCCC4)ccc23)cc1?
pIC50 [1]: 5.85; pIC50 [2]: 6.15; pIC50 [3]: 6.14; pIC50 [4]: 6.18; pIC50 [5]: 6.46; pIC50 [6]: 6.97; viability, T/C [7]: 89.1%; viability, T/C [8]: 89.1%; viability, T/C [9]: 94.4%; viability, T/C [10]: 62%; viability, T/C [11]: 20.7%; viability, T/C [12]: 7.56%; viability, T/C [13]: 88.4%; viability, T/C [14]: 72.3%; viability, T/C [15]: 74%; viability, T/C [16]: 40.1%; viability, T/C [17]: 14.7%; viability, T/C [18]: 6.35%; viability, T/C [19]: 93.1%; viability, T/C [20]: 82.9%; viability, T/C [21]: 71%; viability, T/C [22]: 41.8%; viability, T/C [23]: 17.6%; viability, T/C [24]: 6.18%; viability, T/C [25]: 63.1%; viability, T/C [26]: 82.2%; viability, T/C [27]: 74%; viability, T/C [28]: 37.1%; viability, T/C [29]: 11.4%; viability, T/C [30]: 5.01%; viability, T/C [31]: 69.4%; viability, T/C [32]: 82.5%; viability, T/C [33]: 49.1%; viability, T/C [34]: 21.6%; viability, T/C [35]: 8.01%; viability, T/C [36]: 5.13%; viability, T/C [37]: 56.6%; viability, T/C [38]: 52.6%; viability, T/C [39]: 30.4%; viability, T/C [40]: 13.7%; viability, T/C [41]: 5.94%; viability, T/C [42]: 4.92%
